# According to the NIST ThermoML archive (doi:10.1021/je1002829):
# ± gives the expanded uncertainty stated by the source.
# Legend:
# [1] = for mass density: 101.33 kPa, Liquid, Vibrating tube method
# [2] = xn = mol fraction of the nth substance listed; details: x2 = 0
surface tension liquid-gas ([1]; 293.15 K) [mN/m],mass density ([1]; 293.15 K) [kg/m3],surface tension liquid-gas ([1]; 298.15 K) [mN/m],mass density ([1]; 298.15 K) [kg/m3],surface tension liquid-gas ([1]; 303.15 K) [mN/m],mass density ([1]; 303.15 K) [kg/m3],surface tension liquid-gas ([1]; 308.15 K) [mN/m],mass density ([1]; 308.15 K) [kg/m3],Compound,surface tension liquid-gas ([2]; 293.15 K) [mN/m],surface tension liquid-gas ([2]; 298.15 K) [mN/m],surface tension liquid-gas ([2]; 303.15 K) [mN/m],surface tension liquid-gas ([2]; 308.15 K) [mN/m]
26.73 ± 0.78,957.61 ± 0.13,26.19 ± 0.77,952.77 ± 0.13,25.56 ± 0.76,947.94 ± 0.13,25.03 ± 0.75,942.91 ± 0.13,CCCC(=O)O [butanoic acid],,,,
28.12 ± 0.8,925.38 ± 0.14,27.54 ± 0.79,921.2 ± 0.14,27.12 ± 0.78,917.02 ± 0.14,26.66 ± 0.78,912.6 ± 0.14,CCCCCC(=O)O [hexanoic acid],,,,
27.13 ± 0.79,938.29 ± 0.3,26.8 ± 0.79,933.9 ± 0.3,26.23 ± 0.78,929.39 ± 0.3,25.8 ± 0.77,924.73 ± 0.3,CCCCC(=O)O [pentanoic acid],,,,
26.68 ± 0.78,993.42 ± 0.12,26.11 ± 0.77,988.21 ± 0.12,25.7 ± 0.76,982.88 ± 0.12,25.16 ± 0.76,977.43 ± 0.12,CCC(=O)O [propanoic acid],,,,
,,,,,,,,O [water] + CCC(=O)O,72.58 ± 1.4,71.81 ± 1.4,71.04 ± 1.4,70.23 ± 1.4
,,,,,,,,O [water] + CCCC(=O)O,72.58 ± 1.4,71.81 ± 1.4,71.04 ± 1.4,70.23 ± 1.4
,,,,,,,,O [water] + CCCCC(=O)O,72.58 ± 1.4,71.81 ± 1.4,71.04 ± 1.4,70.23 ± 1.4
,,,,,,,,O [water] + CCCCCC(=O)O,72.58 ± 1.4,71.81 ± 1.4,71.04 ± 1.4,70.23 ± 1.4
